Data reported in PMC10677270, “2554. What’s Weight Got to Do with It? Prospective Pharmacokinetic/Pharmacodynamic Evaluation of Fixed-Dose Daptomycin” (Open Forum Infectious Diseases, 2023).

Assay: Steady-state pharmacokinetic/pharmacodynamic evaluation of fixed-dose (750 mg) daptomycin in patients with Staphylococcus aureus infections
Experimental: This study evaluated systemic exposure of a fixed dose (750 mg) of DAP in patients with Staphylococcus aureus infections. Methods Adult non-ICU patients with CrCl ≥ 30 mL/min admitted to our academic medical center warranting DAP for a S. aureus infection were eligible for enrollment. DAP 750 mg was infused over 30 minutes every 24 hours. At steady state, concentrations were obtained pre-dose (0.5 hours) and 1, 12, and 24 hours after the start of infusion. Concentrations were measured using a validated LC-MS assay. Pharmacokinetic (PK) analysis was performed using first-order equations and stratified by weight: low (< 65 kg), normal (65-85 kg), and high ( > 85 kg). Therapeutic AUC24 (≥ 666 mg*hr/L) and elevated trough (Cmin > 24.3 mg/L) were the efficacy and safety targets, respectively.

Which Ke (all patients n=22, DAP 750 mg infused over 30 min every 24 h, LC-MS, first-order equations, median, IQR [0.046, 0.098]) does the source give for CCCCCCCCCC(=O)N[C@@H](Cc1c[nH]c2ccccc12)C(=O)N[C@H](CC(N)=O)C(=O)N[C@@H](CC(=O)O)C(=O)N[C@@H]1C(=O)NCC(=O)N[C@@H](CCCN)C(=O)N[C@@H](CC(=O)O)C(=O)N[C@H](C)C(=O)N[C@@H](CC(=O)O)C(=O)NCC(=O)N[C@H](CO)C(=O)N[C@@H]([C@H](C)CC(=O)O)C(=O)N[C@@H](CC(=O)c2ccccc2N)C(=O)O[C@@H]1C [DAP, daptomycin] here?
Its Ke is 0.078 h⁻¹.

And the Cmin (all patients n=22, DAP 750 mg infused over 30 min every 24 h, LC-MS, median, IQR [7.3, 29.9])?
Its Cmin is 10500 ng/mL.

And the “Therapeutic AUC24 (>= 666 mg*hr/L) achieved, share of patients” value (“Therapeutic AUC24” below) (all patients, 14/22, DAP 750 mg every 24 h, efficacy target)?
The value was 64%.

What about the “Therapeutic AUC24” value (females n=12, DAP 750 mg every 24 h) of the same compound?
Its value is 83%.

And the “Therapeutic AUC24” value (males n=10, DAP 750 mg every 24 h)?
Its value is 40%.
